Reference: patent US10519152B2, “Compounds and their use in treating cancer” (AstraZeneca AB, priority 2017, dated 2019)

Target: T1, recombinant human Estrogen Receptor alpha ligand binding domain, residues 307-554 (ER alpha-LBD (GST)) (Homo sapiens, UniProt P03372)
T1 construct: made in house
T1 sequence (P03372 307-554): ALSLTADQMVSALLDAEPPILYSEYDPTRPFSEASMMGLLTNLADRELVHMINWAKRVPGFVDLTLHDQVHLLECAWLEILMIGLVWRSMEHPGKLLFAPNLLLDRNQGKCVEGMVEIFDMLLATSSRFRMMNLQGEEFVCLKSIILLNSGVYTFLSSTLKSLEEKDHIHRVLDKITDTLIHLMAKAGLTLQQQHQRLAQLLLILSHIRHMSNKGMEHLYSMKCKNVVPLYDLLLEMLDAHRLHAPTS
Test: ERα binding assay (LanthaScreen TR-FRET competition)
Settings: TR-FRET competition with Fluormone ES2 tracer, 4 hours at room temperature; single experiment or average of two or more

Structure (SMILES) | IC50 [nM]
Cc1ncsc1-c1ccc(CNC(=O)[C@@H]2C[C@@H](O)CN2C(=O)[C@@H](NC(=O)COCCOCCNC(=O)/C=C/c2cc(F)c([C@@H]3c4[nH]c5ccccc5c4C[C@@H](C)N3CC(C)(C)F)c(F)c2)C(C)(C)C)cc1 [Example 58, (2S,4R)-1-((S,E)-2-(tert-butyl)-15-(3,5-difluoro-4-((1R,3R)-2-(2-fluoro-2-methylpropyl)-3-methyl-2,3,4,9-tetrahydro-1H-pyrido[3,4-b]indol-1-yl)phenyl)-4,13-dioxo-6,9-dioxa-3,124-diazapentadec-4-enoyl)-4-hydroxy-N-(4-(4-methylthiazol-5-yl)benzyl)pyrrolidine-2-carboxamide, Trifluoroacetic Acid] | 0.9
Cc1ncsc1-c1ccc(CNC(=O)[C@@H]2C[C@@H](O)CN2C(=O)[C@@H](NC(=O)COCCNC(=O)/C=C/c2cc(F)c([C@@H]3c4[nH]c5ccccc5c4C[C@@H](C)N3CC(C)(C)F)c(F)c2)C(C)(C)C)cc1 [Example 62, (2S,4R)-1-((S)-2-(2-(2-((E)-3-(3,5-difluoro-4-((1R,3R)-2-(2-fluoro-2-methylpropyl)-3-methyl-2,3,4,9-tetrahydro-1H-pyrido[3,4-b]indol-1-yl)phenyl)acrylamido)ethoxy)acetamido)-3,3-dimethylbutanoyl)-4-hydroxy-N-(4-(4-methylthiazol-5-yl)benzyl)pyrrolidine-2-carboxamide, Trifluoroacetic Acid] | 0.5
Cc1ncsc1-c1ccc(CNC(=O)[C@@H]2C[C@@H](O)CN2C(=O)[C@@H](NC(=O)COCc2ccc(COc3cc(F)c([C@@H]4c5[nH]c6ccccc6c5C[C@@H](C)N4CC(C)(C)F)c(F)c3)cn2)C(C)(C)C)cc1 [Example 86, (2S,4R)-1-((S)-2-(2-((5-((3,5-Difluoro-4-((1R,3R)-2-(2-fluoro-2-methylpropyl)-3-methyl-2,3,4,9-tetrahydro-1H-pyrido[3,4-b]indol-1-yl)phenoxy)methyl)pyridin-2-yl)methoxy)acetamido)-3,3-dimethylbutanoyl)-4-hydroxy-N-(4-(4-methylthiazol-5-yl)benzyl)pyrrolidine-2-carboxamide] | 0.7
Cc1ncsc1-c1ccc(CNC(=O)[C@@H]2C[C@@H](O)CN2C(=O)[C@@H](NC(=O)COCc2ccc(OCCOc3cc(F)c([C@@H]4c5[nH]c6ccccc6c5C[C@@H](C)N4CC(C)(C)F)c(F)c3)cc2)C(C)(C)C)cc1 [Example 4, (2S,4R)-1-((S)-2-(2-((4-(2-(3,5-Difluoro-4-((1R,3R)-2-(2-fluoro-2-methylpropyl)-3-methyl-2,3,4,9-tetrahydro-1H-pyrido[3,4-b]indol-1-yl)phenoxy)ethoxy)benzyl)oxy)acetamido)-3,3-dimethylbutanoyl)-4-hydroxy-N-(4-(4-methylthiazol-5-yl)benzyl)pyrrolidine-2-carboxamide] | 0.8
Cc1ncsc1-c1ccc(CNC(=O)[C@@H]2C[C@@H](O)CN2C(=O)[C@@H](NC(=O)COCCOCCOCC(=O)Nc2ccc([C@@H]3c4[nH]c5ccccc5c4C[C@@H](C)N3CC(C)(C)F)cc2)C(C)(C)C)cc1 [Example 57, (2S,4R)-1-((S)-2-(tert-butyl)-14-((4-((1R,3R)-2-(2-fluoro-2-methylpropyl)-3-methyl-2,3,4,9-tetrahydro-1H-pyrido[3,4-b]indol-1-yl)phenyl)amino)-4,14-dioxo-6,9,12-trioxa-3-azatetradecanoyl)-4-hydroxy-N-(4-(4-methylthiazol-5-yl)benzyl)pyrrolidine-2-carboxamide, Trifluoroacetic Acid] | 8.8
Cc1ncsc1-c1ccc(CNC(=O)[C@@H]2C[C@@H](O)CN2C(=O)[C@@H](NC(=O)c2ccc(N3CCN(CCNC(=O)/C=C/c4cc(F)c([C@@H]5c6[nH]c7ccccc7c6C[C@@H](C)N5CC(C)(C)F)c(F)c4)CC3)cc2)C(C)(C)C)cc1 [Example 67, (2S,4R)-1-((S)-2-(4-(4-(2-((E)-3-(3,5-difluoro-4-((1R,3R)-2-(2-fluoro-2-methylpropyl)-3-methyl-2,3,4,9-tetrahydro-1H-pyrido[3,4-b]indol-1-yl)phenyl)acrylamido)ethyl)piperazin-1-yl)benzamido)-3,3-dimethylbutanoyl)-4-hydroxy-N-(4-(4-methylthiazol-5-yl)benzyl)pyrrolidine-2-carboxamide, Trifluoroacetic Acid] | 1.1
Cc1ncsc1-c1ccc(CNC(=O)[C@@H]2C[C@@H](O)CN2C(=O)[C@@H](NC(=O)CCCCNC(=O)/C=C/c2cc(F)c([C@@H]3c4[nH]c5ccccc5c4C[C@@H](C)N3CC(C)(C)F)c(F)c2)C(C)(C)C)cc1 [Example 60, (2S,4R)-1-((S)-2-(5-((E)-3-(3,5-difluoro-4-((1R,3R)-2-(2-fluoro-2-methylpropyl)-3-methyl-2,3,4,9-tetrahydro-1H-pyrido[3,4-b]indol-1-yl)phenyl)acrylamido)pentanamido)-3,3-dimethylbutanoyl)-4-hydroxy-N-(4-(4-methylthiazol-5-yl)benzyl)pyrrolidine-2-carboxamide, Trifluoroacetic Acid] | 0.7
Cc1ncsc1-c1ccc(CNC(=O)[C@@H]2C[C@@H](O)CN2C(=O)[C@@H](NC(=O)COCCOCCOCCOc2cc(F)c([C@@H]3c4[nH]c5ccccc5c4C[C@@H](C)N3CC(F)(F)CO)c(F)c2)C(C)(C)C)cc1 [Example 71, (2S,4R)-1-((S)-2-(tert-Butyl)-14-(4-((1R,3R)-2-(2,2-difluoro-3-hydroxypropyl)-3-methyl-2,3,4,9-tetrahydro-1H-pyrido[3,4-b]indol-1-yl)-3,5-difluorophenoxy)-4-oxo-6,9,12-trioxa-3-azatetradecanoyl)-4-hydroxy-N-(4-(4-methylthiazol-5-yl)benzyl)pyrrolidine-2-carboxamide] | 1.3
Cc1ncsc1-c1ccc(CNC(=O)[C@@H]2C[C@@H](O)CN2C(=O)[C@@H](NC(=O)COCCOCCOCCOCCOCC(=O)Nc2ccc([C@@H]3c4[nH]c5ccccc5c4C[C@@H](C)N3CC(C)(C)F)cc2)C(C)(C)C)cc1 [Example 56, N^1-(4-((1R,3R)-2-(2-fluoro-2-methylpropyl)-3-methyl-2,3,4,9-tetrahydro-1H-pyrido[3,4-b]indol-1-yl)phenyl)-N^17—((S)-1-((2S,4R)-4-hydroxy-2-((4-(4-methylthiazol-5-yl)benzyl)carbamoyl)pyrrolidin-1-yl)-3,3-dimethyl-1-oxobutan-2-yl)-3,6,9,12,15-pentaoxaheptadecanediamide, Trifluoroacetic Acid] | 20
Cc1ncsc1-c1ccc(CNC(=O)[C@@H]2C[C@@H](O)CN2C(=O)[C@@H](NC(=O)COCCO[C@H](C)[C@@H](C)OCCOc2cc(F)c([C@@H]3c4[nH]c5ccccc5c4C[C@@H](C)N3CC(C)(C)F)c(F)c2)C(C)(C)C)cc1 [Example 80, (2S,4R)-1-((2S,10R,11R)-2-(tert-butyl)-14-(3,5-difluoro-4-((1R,3R)-2-(2-fluoro-2-methylpropyl)-3-methyl-2,3,4,9-tetrahydro-1H-pyrido[3,4-b]indol-1-yl)phenoxy)-10,11-dimethyl-4-oxo-6,9,12-trioxa-3-azatetradecanoyl)-4-hydroxy-N-(4-(4-methylthiazol-5-yl)benzyl)pyrrolidine-2-carboxamide] | 0.7
Cc1ncsc1-c1ccc(CNC(=O)[C@@H]2C[C@@H](O)CN2C(=O)[C@@H](NC(=O)COCCOCCOCCOCC(=O)Nc2ccc([C@@H]3c4[nH]c5ccccc5c4C[C@@H](C)N3CC(C)(C)F)cc2)C(C)(C)C)cc1 [Example 55, N^1-(4-((1R,3R)-2-(2-fluoro-2-methylpropyl)-3-methyl-2,3,4,9-tetrahydro-1H-pyrido[3,4-b]indol-1-yl)phenyl)-N^14—((S)-1-((2S,4R)-4-hydroxy-2-((4-(4-methylthiazol-5-yl)benzyl)carbamoyl)pyrrolidin-1-yl)-3,3-dimethyl-1-oxobutan-2-yl)-3,6,9,12-tetraoxatetradecanediamide, Trifluoroacetic Acid] | 12
Cc1ncsc1-c1ccc(CNC(=O)[C@@H]2C[C@@H](O)CN2C(=O)[C@@H](NC(=O)COc2ccc(OCCNC(=O)/C=C/c3cc(F)c([C@@H]4c5[nH]c6ccccc6c5C[C@@H](C)N4CC(C)(C)F)c(F)c3)cc2)C(C)(C)C)cc1 [Example 61, (2S,4R)-1-((S)-2-(2-(4-(2-((E)-3-(3,5-difluoro-4-((1R,3R)-2-(2-fluoro-2-methylpropyl)-3-methyl-2,3,4,9-tetrahydro-1H-pyrido[3,4-b]indol-1-yl)phenyl)acrylamido)ethoxy)phenoxy)acetamido)-3,3-dimethylbutanoyl)-4-hydroxy-N-(4-(4-methylthiazol-5-yl)benzyl)pyrrolidine-2-carboxamide, Trifluoroacetic Acid] | 1
Cc1ncsc1-c1ccc(CNC(=O)[C@@H]2C[C@@H](O)CN2C(=O)[C@@H](NC(=O)COCCOCCOCCOc2cc(F)c([C@@H]3c4[nH]c5ccccc5c4C[C@@H](C)N3CC3(F)CC3)c(F)c2)C(C)(C)C)cc1 [Example 77, (2S,4R)-1-((S)-2-(tert-Butyl)-14-(3,5-difluoro-4-((1R,3R)-2-((1-fluorocyclopropyl)methyl)-3-methyl-2,3,4,9-tetrahydro-1H-pyrido[3,4-b]indol-1-yl)phenoxy)-4-oxo-6,9,12-trioxa-3-azatetradecanoyl)-4-hydroxy-N-(4-(4-methylthiazol-5-yl)benzyl)pyrrolidine-2-carboxamide] | 2.6
Cc1ncsc1-c1ccc(CNC(=O)[C@@H]2C[C@@H](O)CN2C(=O)[C@@H](NC(=O)COCCOCCOCCCCNC(=O)c2cc(F)c([C@@H]3c4[nH]c5ccccc5c4C[C@@H](C)N3CC(C)(C)F)c(F)c2)C(C)(C)C)cc1 [Example 83, (2S,4R)-1-((S)-17-(tert-Butyl)-1-(3,5-difluoro-4-((1R,3R)-2-(2-fluoro-2-methylpropyl)-3-methyl-2,3,4,9-tetrahydro-1H-pyrido[3,4-b]indol-1-yl)phenyl)-1,15-dioxo-7,10,13-trioxa-2,16-diazaoctadecan-18-oyl)-4-hydroxy-N-(4-(4-methylthiazol-5-yl)benzyl)pyrrolidine-2-carboxamide] | 1.1
